Measured values: US8858934B2, “Method for producing cells having characteristics of hepatocytes” (priority 2010, dated 2014)

Test system: cells of the present invention (Metaheps)
Assay: Long-term toxicity in the cells of the present invention (LDH release over 15 days)
Type: cell-based, human
Conditions: Metaheps incubated 15 days with low concentrations (diclofenac 50 μM, acetaminophen 500 μM)
Protocol: On incubation days 1, 3, 6, 8, 10, 13 and 15 medium samples were drawn and LDH activity in media was determined using the Cytotoxicity Kit from Promega. LDH release was calculated in % as 100×(LDH in media/LDH media+LDH lysate).

SMILES | toxicity in Metaheps as measured by LDH release
CC(=O)Nc1ccc(O)cc1 [acetaminophen] | acute toxicity
O=C(O)Cc1ccccc1Nc1c(Cl)cccc1Cl [diclofenac] | long-term toxicity
